Laboratory results as given in patent publication US5723719A, “Transgenic mouse as model for diseases involving dopaminergic dysfunction” (Health Research Inc., priority 1995, dated 1998).
Like-named read-outs stand apart in the source and are kept apart here.

Assays:
dopamine D2 receptor = biological target: T1, dopamine D2 receptor (Mus musculus, UniProt P61168); experiment: Radioligand binding assay of dopamine D2 receptor binding sites in striatum; settings: mean ± s.e.m., read-out: KD (dissociation constant between ligand and receptor)
T1 construct: from tissue; host or cells: striatum of homozygous transgenic (TgX15, chakragati) mice and normal heterozygous litter-mates
Experimental: Radioligand binding assays were performed to analyze the density of dopamine D2 receptor binding sites in the striatum of mice of the present invention and normal heterozygous mice. […] The density of dopamine D2 binding sites are assayed by the ability of the striata to maximally bind ^[MUT]-methylspiperone (Bmax). Dissociation constants (KD) between the ligand and receptor were also measured.

6-OHDA-lesioned rodents = settings: cited from earlier work
chakragati mice = experiment: Effect of apomorphine treatment on chakragati mice; format: in vivo, mouse; settings: chakragati mice versus normal control mice
[1] = rats unilaterally depleted of dopamine by 6-hydroxydopamine lesions (Ungerstedt 1971)

T1 sequence (P61168 whole entry): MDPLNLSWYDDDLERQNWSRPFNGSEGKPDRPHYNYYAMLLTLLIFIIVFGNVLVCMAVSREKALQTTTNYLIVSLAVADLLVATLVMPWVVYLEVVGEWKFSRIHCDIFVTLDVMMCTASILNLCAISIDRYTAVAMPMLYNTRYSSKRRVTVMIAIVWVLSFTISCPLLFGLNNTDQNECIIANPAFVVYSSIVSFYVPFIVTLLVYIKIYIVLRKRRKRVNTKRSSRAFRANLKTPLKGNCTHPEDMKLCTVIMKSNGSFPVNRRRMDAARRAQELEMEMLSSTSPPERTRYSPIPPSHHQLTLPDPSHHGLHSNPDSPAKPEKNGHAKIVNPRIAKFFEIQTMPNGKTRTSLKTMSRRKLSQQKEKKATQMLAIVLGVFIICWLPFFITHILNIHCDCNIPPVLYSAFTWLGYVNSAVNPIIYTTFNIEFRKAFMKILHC

| SMILES | Kd (dopamine D2 receptor; striata of heterozygous litter-mates) | Kd (dopamine D2 receptor; striata of homozygous transgenic mice) | Circling behavior elicited (6-OHDA-lesioned rodents; [1]) | Effect of treatment on chakragati mice compared to normal control mice (circling) (chakragati mice) | Circling behavior elicited (6-OHDA-lesioned rodents; 6-OHDA-lesioned rodents) |
| --- | --- | --- | --- | --- | --- |
| CN1CN(c2ccccc2)C2(CCN(CCCC(=O)c3ccc(F)cc3)CC2)C1=O [^3 H-N-methylspiperone] | 0.073 ± 0.008 nM | 0.081 ± 0.013 nM |  |  |  |
| CC(N)Cc1ccccc1 (stereo not drawn) [amphetamine] |  |  | high rates of circling behavior can be elicited |  |  |
| CN1CCc2cccc3c2[C@H]1Cc1ccc(O)c(O)c1-3 [apomorphine] |  |  | high rates of circling behavior can be elicited | not significantly differ compared to the normal control mice | elicits robust circling behavior |
